Data taken from CN113143900A, “Ml365在制备预防和/或治疗nlrp3炎症小体相关疾病的药物中的应用” (Southern Medical University, priority 2021, dated 2021).
Entries after “also recorded” stand apart in the source; their conditions may differ.

Tests used:
[1] = biological target: T1, human TWIK1 channel, functional mutant muTWIK1 I293/294A/K274E [人源TWIK1-I293/294A/K274E, muTWIK1] (Homo sapiens, UniProt O00180, I293A/I294A/K274E); test: Whole-cell patch clamp of transfected COS-7 cells, TWIK1 (muTWIK1) current; assay type: cell-based
T1 construct: GFP (green fluorescent protein label of the plasmid); expressed in transfected cells; host or cells: COS-7
T1 sequence (O00180 1-336 K274E/I293A/I294A): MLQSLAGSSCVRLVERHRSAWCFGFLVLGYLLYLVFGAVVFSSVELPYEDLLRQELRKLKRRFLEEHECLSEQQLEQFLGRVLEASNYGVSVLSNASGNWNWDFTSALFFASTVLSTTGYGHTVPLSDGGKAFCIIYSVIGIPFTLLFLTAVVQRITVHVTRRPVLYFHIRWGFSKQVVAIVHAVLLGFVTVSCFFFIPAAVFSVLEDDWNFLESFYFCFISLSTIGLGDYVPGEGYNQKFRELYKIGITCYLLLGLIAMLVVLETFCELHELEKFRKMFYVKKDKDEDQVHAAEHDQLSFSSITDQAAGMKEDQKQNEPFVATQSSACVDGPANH

[2] = tested on: NLRP3 inflammasome [NLRP3炎症小体]; test: ATP-induced IL-1β release from LPS-primed BMDM, ELISA; assay type: cell-based, mouse
[3] = biological target: T2, human TWIK2 channel, functional mutant muTWIK2 Y308A/I289A/L290A [人源TWIK2-Y308A/I289A/L290A, muTWIK2] (Homo sapiens, UniProt Q9Y257, I289A/L290A/Y308A); test: Whole-cell patch clamp of transfected COS-7 cells, TWIK2 (muTWIK2) current; assay type: cell-based
T2 construct: GFP (green fluorescent protein label of the plasmid); expressed in transfected cells; host or cells: COS-7
T2 sequence (Q9Y257 1-313 I289A/L290A/Y308A): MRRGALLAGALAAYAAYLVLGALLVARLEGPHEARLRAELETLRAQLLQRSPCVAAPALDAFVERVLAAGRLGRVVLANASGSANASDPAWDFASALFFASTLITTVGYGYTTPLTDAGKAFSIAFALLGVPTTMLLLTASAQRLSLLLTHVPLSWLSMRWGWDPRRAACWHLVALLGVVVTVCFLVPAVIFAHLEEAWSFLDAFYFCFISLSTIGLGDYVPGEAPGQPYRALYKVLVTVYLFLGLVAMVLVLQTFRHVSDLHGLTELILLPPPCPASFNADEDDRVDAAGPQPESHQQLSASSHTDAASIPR

[4] = biological target: T3, human THIK1 channel [人源THIK1, THIK1通道] (Homo sapiens, UniProt Q9HB14); test: Whole-cell patch clamp of transfected COS-7 cells, THIK1 current; assay type: cell-based
T3 construct: GFP (green fluorescent protein label of the plasmid); expressed in transfected cells; host or cells: COS-7
T3 sequence (Q9HB14 1-408): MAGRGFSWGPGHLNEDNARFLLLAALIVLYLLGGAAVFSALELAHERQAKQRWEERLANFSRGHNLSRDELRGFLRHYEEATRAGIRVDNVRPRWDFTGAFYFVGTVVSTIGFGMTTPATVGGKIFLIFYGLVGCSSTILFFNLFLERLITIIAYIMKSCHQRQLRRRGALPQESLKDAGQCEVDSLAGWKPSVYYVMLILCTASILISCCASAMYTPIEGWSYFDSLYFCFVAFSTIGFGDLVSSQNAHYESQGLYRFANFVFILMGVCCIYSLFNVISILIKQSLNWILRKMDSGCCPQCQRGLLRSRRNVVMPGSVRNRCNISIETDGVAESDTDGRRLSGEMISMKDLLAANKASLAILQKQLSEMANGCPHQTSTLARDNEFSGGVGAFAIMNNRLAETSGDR

[5] = tested on: NLRP3 inflammasome [NLRP3炎症小体]; test: ATP-induced NLRP3 inflammasome activation in BMDM after siRNA knockdown of TWIK2 (WB, ELISA); assay type: cell-based, mouse; settings: ML365 5 μM (Fig. 11), TWIK2 siRNA 50 nM 48 h, LPS + ATP
[6] = tested on: NLRP3 inflammasome [NLRP3炎症小体]; test: Nigericin-induced NLRP3 inflammasome activation in LPS-primed BMDM (WB, ELISA); assay type: cell-based, mouse
[7] = tested on: NLRP3 inflammasome [NLRP3炎症小体]; test: ATP- or Nigericin-induced NLRP3 inflammasome activation in human THP-1 macrophages; assay type: cell-based
[8] = tested on: NLRC4 inflammasome [NLRC4炎症小体]; test: NLRC4 inflammasome activation (Pam3CSK4 + Flagellin), IL-1β ELISA; assay type: cell-based, mouse; settings: ML365 5 μM (Fig. 9)
[9] = tested on: non-canonical inflammasome [非经典炎症小体]; test: Non-canonical inflammasome activation (Pam3CSK4 + transfected LPS), IL-1β ELISA; assay type: cell-based, mouse; settings: ML365 5 μM (Fig. 9)
[10] = tested on: NLRP3 inflammasome [NLRP3炎症小体]; test: ATP-induced NLRP3 inflammasome activation in LPS-primed BMDM, Western blot (WB); assay type: cell-based, mouse
[11] = tested on: AIM2 inflammasome [AIM2炎症小体]; test: AIM2 inflammasome activation (LPS + poly(dA:dT)), IL-1β ELISA; assay type: cell-based, mouse; settings: ML365 5 μM (Fig. 9)
[12] = tested on: TNF-α; test: TNF-α in supernatants of LPS + ATP treated BMDM, ELISA; assay type: cell-based, mouse; settings: same supernatants
[13] = tested on: NLRP3 inflammasome [NLRP3炎症小体]; settings: mouse BMDM; pharmacological inhibition (or knockout) of TWIK2; Di et al. 2018; cited from earlier work

## COc1ccccc1C(=O)Nc1cccc(NC(=O)c2cccc(C)c2)c1 [ML365, 2-甲氧基-N-[3-[(3-甲基苯甲酰基)氨基]苯基]苯甲酰胺]
[1]; 10 μM
  inhibition of muTWIK1 channel (in words): 没有抑制作用
[1]; 20 μM
  inhibition of muTWIK1 channel (in words): 也无抑制作用
[1]; concentration not stated
  effect on TWIK1 channel function (in words): 不影响
[2]
  IL-1β release (in words): 显著降低
[3]; 10 μM in Fig. 3, muTWIK2 in COS-7 cells
  inhibition of TWIK2 channel (in words): 特异性强效抑制剂; also recorded: 强效抑制剂; also recorded: 较强的抑制作用
[3]; ML365 10 μM, muTWIK2 in COS-7 cells
  I/I0 (inhibition of TWIK2 channel): 0.35±0.02
[3]; ML365 10 μM, muTWIK2 in COS-7 cells, read-out: I/I0 (inhibition of TWIK2 channel)
  activity at 10 µM: 35 ± 2%
[3]; compared with TWIK1 and THIK1
  selectivity for TWIK2 channel (in words): 特异性选择抑制剂; also recorded: 强效选择性抑制剂; also recorded: 选择性抑制剂
[3]; inhibition of TWIK2 channel, dose-response curve on muTWIK2, COS-7 cells
  IC50: 4.07 µM
[4]; 10 μM
  inhibition of THIK1 channel (in words): 几乎无抑制作用
[4]; 20 μM
  inhibition of THIK1 channel (in words): 也无抑制作用
[4]; concentration not stated
  effect on THIK1 channel function (in words): 不影响
[5]
  inhibition of ATP-induced NLRP3 inflammasome activation by ML365 after TWIK2 knockdown (in words): 可阻断 and 极大减弱 and 显著下降 and 可消除
[6]; BMDM, even at 10 and 20 μM, Nigericin 10 μM 30 min
  effect on Nigericin-induced NLRP3 inflammasome activation (in words): 没有影响
[6]; concentration not stated
  effect on Nigericin-induced NLRP3 inflammasome activation (in words): 无影响
[7]; ATP
  effect on ATP-induced NLRP3 inflammasome activation (in words): 也在人THP-1巨噬细胞中得到证实 and 抑制
[7]; Nigericin
  effect on Nigericin-induced NLRP3 inflammasome activation (in words): 也在人THP-1巨噬细胞中得到证实 and 无影响
[8]
  effect on NLRC4 inflammasome activation / induced IL-1β production (in words): 不抑制 and 无影响
[9]
  effect on non-canonical inflammasome activation (in words): 不抑制 and 无影响
[10]; LPS 5 μg/mL overnight, compound 2 h, ATP 5 mM 1 h
  effect on ATP-induced NLRP3 inflammasome activation (in words): 阻断 and 剂量依赖性地抑制 and 可以特异性抑制 and 可特异性地抑制 and 可特异性抑制
[10]; WB, LPS + ATP
  expression level of caspase-1 in cell supernatant (in words): 有所降低
  expression level of mature IL-1β in cell supernatant (in words): 有所降低
[11]
  effect on AIM2 inflammasome activation / induced IL-1β production (in words): 不抑制 and 无影响
[12]
  TNF-α expression (in words): 几乎无影响

## C=C[C@H]1CN2CC[C@H]1C[C@H]2[C@H](O)c1ccnc2ccc(OC)cc12 [奎宁]
[13]
  ASC oligomerisation (in words): 抑制caspase-1的激活、ATP诱发的IL-1β的释放以及凋亡相关斑点形成蛋白ASC的寡聚化
  ATP-evoked IL-1β release (in words): 抑制caspase-1的激活、ATP诱发的IL-1β的释放
  caspase-1 activation (in words): 抑制caspase-1的激活
  effect on NLRP3 inflammasome activation (in words): 可以抑制BMDM细胞中NLRP3炎症小体的激活
